# Measurements published in US7015211B2 (Yale University, priority 2003, dated 2006).
# Where “and” joins values, the source holds several entries; their conditions need not be identical. Identical values can stand only once. Entries after “also recorded” stand apart in the source; their conditions may differ. Like-named read-outs stand apart in the source and are kept apart here. Marks after values point to notes of the source that are not given here.
# Assays:
# [1] = system: human endometrial adenocarcinoma cells (Ishikawa); assay: Estrogenic potency in Ishikawa cells, induction of alkaline phosphatase (AlkP); format: cell-based; details: for Ishikawa cell AlkP (RSA): relative stimulatory activity = EC50 of E2 / EC50 of analog x 100, E2 = 100, 3 days, ± SD
# Experimental: Estrogenic Potency in Ishikawa Cells. The estrogenic potency of the E2-analogs was determined in an estrogen bioassay, the induction of alkaline phosphatase (AlkP) in human endometrial adenocarcinoma cells (Ishikawa) grown in 96-well microtiter plates as we have previously described.^38 In short, the cells are grown in phenol red free medium with estrogen depleted (charcoal stripped) bovine serum in the presence or absence of varying amounts of the steroids, across a dose range of at least 6 orders of magnitude. […] After 3 days, the cells are washed, frozen and thawed, and then incubated with 5 mM p-nitrophenyl phosphate, a chromogenic substrate for the AlkP enzyme, at pH 9.8. To ensure linear enzymatic analysis, the plates are monitored kinetically for the production of p-nitrophenol at 405 nm. […] Each compound was analyzed in at least 3 separate experiments performed in duplicate.
# [2] = system: esterase, rat hepatic microsomes; assay: Esterase hydrolysis in rat hepatic microsomes; format: in vitro ADME
# Experimental: Esterase. Esterase activity was measured in rat hepatic microsomes essentially using the conditions described^41 with some minor modifications. Briefly, rat hepatic microsomes were incubated with 50 μM E2-alkyl ester. Since the rates of reaction are widely different for the various esters, the incubation times and enzyme concentration were varied accordingly to obtain linear kinetics. In every experiment, E16-1,2 was run concurrently to normalize the rate of hydrolysis of each compound. At several appropriate time points during the incubation (37° C.), 100 μL aliquots were quenched with a solution of 2 μg of the internal standard, 6-ketoestradiol in 33 μL of CH3CN, 33 μL of THF and 5 μL of glacial HOAc. The mixture was centrifuged and analyzed for the esterase-hydrolysis product (the corresponding E2-carboxylic acid) by reversed phase HPLC: E16-1,0; E15-1,0; E15-2,0; and E15-3,0 by HPLC with system H-29. Peaks for the hydrolysis product (E16-1,0 tR=10.7 min; E15-1,0 tR=6.9 min; E15-2,0 tR=9.9 min; E15-3,0 tR=14 min;) and the internal standard (tR=11.8 min for system H-29 and tR=8.8 min for system H-30 were quantified at 280 nm on the HPLC UV detector. The UV absorbance was converted to nmoles of product by comparison to standard curves and corrected for recovery of the internal standard, 6-ketoestradiol. The velocity of the reaction for each ester, in nmol product/min/mg protein, was then normalized to the ester, E16-1,2 and is shown in Table 1 as relative hydrolytic activity (RHA) The enzymatic velocity for the hydrolysis of E16-1,2 was 2.34±0.8 (S.D.) nmol product/min/mg protein over the various experiments. All compounds were tested in triplicate in at least 2 separate experiments
# [3] = target: T1, ER (ERα) in uterine cytosol (Rattus norvegicus, UniProt P06211); assay: Competitive binding to the estrogen receptor in rat uterine cytosol; details: for Estrogen Receptor (RBA): relative binding affinity, E2 = 100, rat uterine cytosol, 1 nM [3H]E2, ± SD; for RBA: relative to E2
# T1 sequence (P06211 1-600): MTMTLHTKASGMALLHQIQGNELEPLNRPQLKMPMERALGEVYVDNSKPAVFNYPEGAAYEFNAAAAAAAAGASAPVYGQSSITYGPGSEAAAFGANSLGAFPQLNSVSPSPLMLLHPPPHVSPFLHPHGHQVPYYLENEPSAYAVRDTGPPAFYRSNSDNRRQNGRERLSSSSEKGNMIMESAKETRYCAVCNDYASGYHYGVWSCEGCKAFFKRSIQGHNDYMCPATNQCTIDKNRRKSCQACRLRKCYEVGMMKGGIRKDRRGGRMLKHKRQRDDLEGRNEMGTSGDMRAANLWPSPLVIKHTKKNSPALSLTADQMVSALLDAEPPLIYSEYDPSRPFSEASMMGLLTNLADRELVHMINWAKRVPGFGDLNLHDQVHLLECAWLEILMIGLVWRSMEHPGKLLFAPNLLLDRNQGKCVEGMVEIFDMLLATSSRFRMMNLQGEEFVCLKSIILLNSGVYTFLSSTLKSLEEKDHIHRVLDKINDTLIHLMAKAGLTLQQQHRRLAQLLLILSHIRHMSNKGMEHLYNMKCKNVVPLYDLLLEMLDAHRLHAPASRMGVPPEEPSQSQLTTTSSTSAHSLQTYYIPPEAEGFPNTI
# [4] = system: uterus of immature rats; assay: In vivo estrogen bioassay: uterine weight (uterotrophic assay, systemic); design: species or system rat; details: for uterotrophic response (in words) / Uterotrophic R.A × 10^3: 100 μg dose; for Uterotrophic R.A × 10^3: activity relative to E2, × 10^3
# Experimental: In Vivo Estrogen Bioassays: Uterine Weight. […] Control animals received sesame oil. On the fourth day, the animals were killed, the uteri were removed, dissected, blotted and weighed. Except where noted, each compound was assayed in 2 separate experiments with n=5.
# [5] = target: T2, ligand binding domain (LBD) of human ERα (M250-V595) (Homo sapiens, UniProt P03372); assay: Competitive binding to the LBD of human ERα in E. coli lysates; details: for selectivity / preference for ERα: ERα versus ERβ LBD; for ERα RBA: RBA compared to E2 (=100), LBD of human ERα in E. coli lysates, [3H]E2; for ERα RBA / ERα/ERβ (ratio of RBA): ± SD; for ERα/ERβ (ratio of RBA): human LBDs
# T2 construct: human ERα (M250-V595); made in house; host or cells: Escherichia coli (lysate used)
# T2 sequence (P03372 250-595): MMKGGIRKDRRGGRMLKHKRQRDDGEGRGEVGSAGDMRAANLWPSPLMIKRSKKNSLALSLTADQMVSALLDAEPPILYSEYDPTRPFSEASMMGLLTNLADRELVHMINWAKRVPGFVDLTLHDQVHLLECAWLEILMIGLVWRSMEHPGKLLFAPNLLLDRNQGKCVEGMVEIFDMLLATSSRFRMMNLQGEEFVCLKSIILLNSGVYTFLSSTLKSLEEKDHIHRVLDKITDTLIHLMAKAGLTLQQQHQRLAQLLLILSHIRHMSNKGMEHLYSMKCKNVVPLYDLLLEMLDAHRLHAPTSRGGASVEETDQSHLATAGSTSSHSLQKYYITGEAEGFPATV
# [6] = target: T3, ligand binding domain (LBD) of human ERβ (M214-Q530) (Homo sapiens, UniProt Q92731); assay: Competitive binding to the LBD of human ERβ in E. coli lysates; details: RBA compared to E2 (=100), [3H]E2, ± SD
# T3 construct: human ERβ (M214-Q530); made in house; host or cells: Escherichia coli (lysate used)
# T3 sequence (Q92731 214-530): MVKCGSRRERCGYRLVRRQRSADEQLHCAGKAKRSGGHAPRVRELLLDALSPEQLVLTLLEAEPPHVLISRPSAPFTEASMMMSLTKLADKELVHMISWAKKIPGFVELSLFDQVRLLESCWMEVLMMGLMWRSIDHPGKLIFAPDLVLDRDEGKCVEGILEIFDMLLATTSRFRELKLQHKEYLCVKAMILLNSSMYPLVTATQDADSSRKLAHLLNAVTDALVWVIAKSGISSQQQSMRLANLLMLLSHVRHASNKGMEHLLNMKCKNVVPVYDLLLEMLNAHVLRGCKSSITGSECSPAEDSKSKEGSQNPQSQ
# [7] = system: vagina of ovariectomized mice; assay: In vivo estrogen bioassay: vaginal reductases (local); design: species or system mouse; details: for Vaginal R.A × 10^3: activity relative to E2, × 10^3, 50 ng dose
# Experimental: In Vivo Estrogen Bioassays: Vaginal reductases. […] The formazan product in the organic extract is quantified at 500 nm. Except where noted, each compound was assayed on at least 2 separate occasions with at least 5–6 replicates each time.
# [8] = n.s. = not significantly different from the control
Compound,Ishikawa cell AlkP (RSA) [1],Esterase (RHA) [2],Estrogen Receptor (RBA) [3],further results
"CCCCOC(=O)[C@H]1C[C@H](O)[C@@]2(C)CC[C@@H]3c4ccc(O)cc4CC[C@H]3[C@H]12 [E15-1,4, Butyl(3,17β-dihydroxyestra-1,3,5(10)-trien-15α-yl)formate]",0.7 ± 0.4,7 ± 0.5,8 ± 2,
"COC(=O)C[C@H]1C[C@H](O)[C@@]2(C)CC[C@@H]3c4ccc(O)cc4CC[C@H]3[C@H]12 [E15-2,1, Methyl(3,17β-dihydroxyestra-1,3,5(10)-trien-15α-yl)acetate]",1 ± 1,31 ± 6,5 ± 3,RBA [3]: 5%
"C[C@]12CC[C@@H]3c4ccc(O)cc4CC[C@H]3[C@@H]1[C@@H](C(=O)O)C[C@@H]2O [E15-1,0, 3,17β-Dihydroxyestra-1,3,5(10)-trien-15α-carboxylic acid]",,,,"estrogenic activity in the Ishikawa cell assay (in words) [1]: nor does it have estrogenic activity; also recorded: very low, not measurable; binding to the estrogen receptor (in words) [3]: does not bind to the estrogen receptor; also recorded: very low, not measurable"
"CCOC(=O)[C@H]1C[C@H](O)[C@@]2(C)CC[C@@H]3c4ccc(O)cc4CC[C@H]3[C@H]12 [E15-1,2, Ethyl(3,17β-dihydroxyestra-1,3,5(10)-trien-15α-yl)formate]",18 ± 10,2.3 ± 0.1,25 ± 12,"RSA ([1]; relative to E2): 18%; uterotrophic response (in words) [4]: neither of these 15α-substituted estrogens produced a statistically significant uterotrophic response; also recorded: neither of these 15α-alkyl esters produce a statistically significant estrogenic response in the uterus; also recorded: inactive in the uterotrophic assay; uterotrophic stimulation at 300 μg dose, equivalent ng of E2 ([4]; 300 μg dose, statistically significant (P<0.05)): 5 ng of E2; Uterotrophic R.A × 10^3 [4, 8]: n.s.; selectivity / preference for ERα [5]: about 3 fold; ERα RBA [5]: 22 ± 5; ERα/ERβ (ratio of RBA) [5]: 3 ± 0.6; ERβ RBA [6]: 7 ± 2; RBA [3]: 25%; Vaginal R.A × 10^3 [7]: 0.42; activity in the vaginal assay (in words) ([7]; mouse, in vivo): very active in the vaginal assay"
"CCOC(=O)C[C@H]1C[C@H](O)[C@@]2(C)CC[C@@H]3c4ccc(O)cc4CC[C@H]3[C@H]12 [E15-2,2, Ethyl(3,17β-dihydroxyestra-1,3,5(10)-trien-15α-yl)acetate]",0.4 ± 0.5,71 ± 7,2 ± 0,RBA [3]: 2%
"C[C@]12CC[C@@H]3c4ccc(O)cc4CC[C@H]3[C@@H]1C[C@@H](C(=O)OCCF)[C@@H]2O [E16-1,2F1, reference compound]",,,,"uterotrophic response (in words) [4]: small but statistically significant response; Uterotrophic effect 100 μg dose (ng E2 equivalent) ([4]; 100 μg total dose s.c. over 3 days, immature rats, compared to 5 ng E2, brackets = range, n.s. = not significantly different from the control): 2 ng E2 equivalent and 2^b ng E2 equivalent; Uterotrophic R.A × 10^3 [4, 8]: 0.02; Vaginal effect 50 ng dose (pg E2 equivalent) ([7]; 50 ng instilled into the vagina, ovariectomized mice, compared to 50 pg E2, brackets = range): 21^b pg E2 equivalent; Vaginal R.A × 10^3 [7]: 0.42"
"CCCOC(=O)[C@H]1C[C@H](O)[C@@]2(C)CC[C@@H]3c4ccc(O)cc4CC[C@H]3[C@H]12 [E15-1,3, Propyl(3,17β-dihydroxyestra-1,3,5(10)-trien-15α-yl)formate]",2 ± 1,,17 ± 5,
"2′-Fluoroethyl(3,17β-dihydroxyestra-1,3,5(10)-trien-15α-yl)formate [E15-1,2F1]",3 ± 0.2,,,"Esterase (RHA) ([2]; relative hydrolytic activity in comparison to E16-1,2 (=100), 50 μM ester, 37° C., ± SD): 4.5 ± 0.1"
"C[C@]12CC[C@@H]3c4ccc(O)cc4CC[C@H]3[C@@H]1CCC2=O [Compound E1, estrone, reference compound]",4 ± 2,,,
"C[C@]12CC[C@@H]3c4ccc(O)cc4CC[C@H]3[C@@H]1[C@@H](CCC(=O)O)C[C@@H]2O [E15-3,0, 3-(3,17β-Dihydroxyestra-1,3,5(10)-trien-15α-yl)propionic acid]",0,,0,
"CCOC(=O)CC[C@H]1C[C@H](O)[C@@]2(C)CC[C@@H]3c4ccc(O)cc4CC[C@H]3[C@H]12 [E15-3,2, Ethyl 3-(3,17β-dihydroxyestra-1,3,5(10)-trien-15α-yl)propionate]",0,674 ± 14,<0.1,
"CCOC(=O)[C@@H]1C[C@H]2[C@@H]3CCc4cc(O)ccc4[C@H]3CC[C@]2(C)[C@H]1O [E16-1,2, reference compound]",,,,"enzymatic velocity for the hydrolysis ([2]; rat hepatic microsomes, 50 μM ester, 37° C., ± S.D. over the various experiments): 2.34±0.8 nmol product/min/mg protein; selectivity / preference for ERα [5]: ~95 fold; ERα RBA [5]: 27 ± 6; ERα/ERβ (ratio of RBA) [5]: 95 ± 47; ERβ RBA [6]: 0.3 ± 0.1"
"CC(C)OC(=O)[C@H]1C[C@H](O)[C@@]2(C)CC[C@@H]3c4ccc(O)cc4CC[C@H]3[C@H]12 [E15-1,3i, Isopropyl(3,17β-dihydroxyestra-1,3,5(10)-trien-15α-yl)formate]",0.3 ± 0.06,0.4 ± 0.1,5 ± 4,"RHA ([2]; rat, 50 μM): 0.3%"
"C[C@]12CC[C@@H]3c4ccc(O)cc4CC[C@H]3[C@@H]1[C@@H](CC(=O)O)C[C@@H]2O [E15-2,0, (3,17β-Dihydroxyestra-1,3,5(10)-trien-15α-yl)acetic acid]",0.2 ± 0.2,,<0.1,
"COC(=O)CC[C@H]1C[C@H](O)[C@@]2(C)CC[C@@H]3c4ccc(O)cc4CC[C@H]3[C@H]12 [E15-3,1, Methyl 3-(3,17β-dihydroxyestra-1,3,5(10)-trien-15α-yl)propionate]",0,248 ± 26,0.8 ± 0.1,
